The values below come from US20210308171A1, “METHODS FOR COMBINATORIAL SCREENING AND USE OF THERAPEUTIC TARGETS THEREOF” (THE BROAD INSTITUTE, INC., priority 2018, published 2021).

Structures are written as SMILES.

The subject of assay [1] is Meljuso, OVCAR8, and A549 cells. Kind of assay: Cell Titer Glo viability of cells transduced with single SaCas9 sgRNAs (MCL1, BCL2L1, BCL2L2 or controls) and treated with small molecule inhibitors. The settings on record: 3 days; for synergy of small molecule with sgRNAs targeting MCL1 (cell viability): both sgRNAs targeting MCL1, dosed from 1 nM to 1 μM. In kind it is cell-based.
Protocol: (b) Validation of genetic interactions with individual gene knockout combined with small molecules. Seven days after transduction with lentivirus expressing individual sgRNAs, cells were incubated with small molecules for three days before assaying viability by Cell Titer Glo. Points represent the average and whiskers represent the maximum and minimum of two replicate wells. […] Cells were incubated with small molecules for three days before assaying viability by Cell Titer Glo (top).
(a) As in FIG. 5b, cells were infected with individual sgRNAs and 7 days post-infection treated with small molecules over a range of doses. Cell viability was determined by Cell Titer Glo after 3 days.
Meljuso, OVCAR8, and A549 cells were transduced with single SaCas9 sgRNAs targeting MCL1, BCL2L1, or BCL2L2, or controls. […] Cells were dosed from 1 nM to 1 μM, and cell viability assessed (FIG. 5b, FIG. 15a).
Meljuso cells were transduced in 12-well plates, as described above, with lentivirus containing a single sgRNA targeting one of the anti-apoptotic genes (BCL2L1, BCL2L2, MCL1) or a control sgRNA either targeting CD81 or containing a run of 6 thymidines. Two days after transduction, cells were selected using puromycin at 1 μg/mL for five days. After puromycin selection, 3,000 cells were seeded into 96-well plates. Across each row of the 96-well plate, a different small molecule was added at 11 log 2-dilutions ranging from 1 μM to approximately 1 nM in duplicate for each of the cell lines. […] After 3 days in the presence of the small molecule, viability of the cell population was assayed by CellTiterGlo (Promega) according to the manufacturer's instructions.

Assay [2] deals with MV4-11 (AML MLL-AF4) cells. Kind of assay: BRD4 inhibitor dose response +/- WDR77 KO. In kind it is cell-based. An excerpt:
FIG. 36—illustrates that WDR77 KO sensitizes MV4-11 (AML MLL-AF4) cells to AZD5153 treatment.

In assay [3] the test system is THP-1 (AML MLL-AF9) cells. The experiment in a line: BRD4 inhibitor dose response +/- WDR77 KO.
Protocol: JQ1 dose response+/−WDR77 KO. Octuplicate wells. Repeated with two sgRNAs.
The experiments were performed in octuplicate wells and repeated with two sgRNAs. FIGS. 35 and 36 show AZD5153 dose response curves in THP-1 and MV4-11 cells that are +/−WDR77 knock-out.
The test system of a further assay is Meljuso cells. The experiment in a line: Apoptosis Big Papi library screen with inhibitors of anti-apoptotic proteins. In kind it is cell-based, human. The settings on record: 250 nM, on/off dosing.
In a further assay the test system is 293T cells. Kind of assay: SaCas9 tiling library 6-thioguanine resistance screen. In kind it is cell-based. How it is done:
FIG. 10—Development of SaCas9 on-target rules. (a) Representation of all SaCas9 sgRNAs tested according to group and gene. sgRNAs are grouped based on whether the target gene is assayed by 6-thioguanine resistance, cell viability, or vemurafenib resistance. Control sgRNAs are also indicated. (b) Log 2 fold change of sgRNAs relative to their starting abundance in the plasmid DNA library in cell viability and resistance experiments. That knockout of NUDTS confers 6-thioguanine resistance in 293T cells but not A375 cell is expected based on previous results^16. P-values: Kruskal-Wallis test with Dunn's multiple comparisons test for each gene relative to the set of non-targeting controls. Significance labels: ns, not significant; *P<0.05; **P<0.01; ***P<0.001; ****P<0.0001.
Applicants designed a second tiling library with all sgRNAs with an NNGRR PAM that targeted 9 genes with known phenotypes in viability and drug resistance assays, a total of 5,327 sgRNAs, including controls (FIG. 10a). Applicants performed viability screens in three cell lines (A375, 293T, MOLM13), and screened relevant cell lines for 6-thioguanine (A375, 293T) and vemurafenib resistance (A375).

Protocol for Meljuso cells: (e) In Meljuso cells with single gene knockouts, comparison of resistance and sensitization phenotypes for two small molecules. The fold change values are calculated relative to the no drug arm for targeting sgRNAs paired with the 6T and HPRT intron controls. Genes of interest are colored and labeled. (f) Buffering interactions in Meljuso cells for combinations of multidomain apoptotic genes with BH3-only sensitizer genes in different growth conditions. Data from the three small molecules were combined for the final column. Heat map scale is the same as in panel c. (g) Buffering interactions in Meljuso cells for combinations of pro-apoptotic genes and caspase genes in standard growth conditions and the combined data from the three small molecules. Heat map scale is the same as in panel c.
Applicants next analyzed Meljuso cells screened with inhibitors, first examining single gene effects.
To examine combinatorial phenotypes, Applicants combined data across the three BCL2L1 inhibitors, to minimize effects due to molecule-specific mechanism of action.
Infections were conducted as described above for the SynLet library. […] All small molecules were screened at 250 nM with an on/off dosing schedule, in which cells were treated with small-molecule for 4 days and then grown in standard growth conditions for 3 days, and then this cycle was repeated for an additional week. All arms were collected at 21 days post-infection. For Meljuso cells, all three replicates were prepared and sequenced separately.

For `Cc1c(-c2ccc(N3CCc4cccc(C(=O)Nc5nc6ccccc6s5)c4C3)nc2C(=O)O)cnn1CC12CC3CC(CC(C3)C1)C2` [A-1331852], the “synergy of small molecule with sgRNAs targeting MCL1 (cell viability)” value in assay [1] was “strongly synergized”.

For the molecule `COc1nnc2ccc(N3CCC(c4ccc(OCCN5CCN(C)C(=O)[C@H]5C)cc4)CC3)nn12` [AZD5153], the “effect of WDR77 KO on response to treatment” value in assay [2] and in assay [3] was “sensitizes” throughout.

On to `Cc1sc2c(c1C)C(c1ccc(Cl)cc1)=N[C@@H](CC(=O)OC(C)(C)C)c1nnc(C)n1-2` [JQ1], for which the “effect of WDR77 KO on response to treatment” value in assay [3] is “sensitizes”.

For the molecule `CC1(C)CCC(c2ccc(Cl)cc2)=C(CN2CCN(c3ccc(C(=O)NS(=O)(=O)c4ccc(N[C@H](CCN5CCOCC5)CSc5ccccc5)c(S(=O)(=O)C(F)(F)F)c4)cc3)CC2)C1` [navitoclax], in assay [1], the “synergy of small molecule with sgRNAs targeting MCL1 (cell viability)” value is “strongly synergized”. In addition, in the assay on Meljuso cells, the “effect of knockout of BAX and PMAIP1 (Noxa) on response to the small molecule” value is recorded as “resistance”; the “effect of knockout of BCL2A1 on response to the small molecule” value is “sensitized”. In addition, in the assay with Meljuso cells (relative to no drug arm), the “synergy with MCL1 knockout (single gene effect in screen)” value is given as “synergized”.

On to `Cc1c(-c2c(-c3ccc(F)o3)sc3ncnc(O[C@H](Cc4ccccc4OCc4ccnn4CC(F)(F)F)C(=O)O)c23)ccc(OCCN2CCN(C)CC2)c1Cl` [S63845], for which the “synergy of small molecule with sgRNAs targeting BCL2L1 (cell viability)” value in assay [1] (sgRNAs targeting BCL2L1, dosed from 1 nM to 1 μM) is “synergized specifically”. Besides, the “synergy with BCL2L1 knockout (single gene effect in screen)” value in the assay on Meljuso cells (relative to no drug arm) is “synergized”.

In the case of `Nc1nc2nc[nH]c2c(=S)[nH]1` [6-thioguanine], the “effect of knockout of NUDTS on response to the drug” value with 293T cells is recorded as “resistance”.
